Common to all, as to test: Cell viability assay (MTS), targeted protein toxin mediated cell killing
What all share (format): cell-based, human

The subject of one assay is A2058 cells (EGFR^−). To be noted: FIG. 8B. The procedure: (§1) After treatment the cells were incubated for 72 hr at 37° C. before the cell viability was determined by a MTS-assay, performed according to the manufacturer's instruction (CellTiter 96® AQueous One Solution Cell Proliferation Assay, Promega). Briefly, the MTS solution was diluted 20× in DMEM without phenol red (PAN-Biotech GmbH) supplemented with 10% FBS. The cells were washed once with 200 μL/PBS well, after which 100 μL diluted MTS solution was added/well. The plate was incubated for approximately 20-30 minutes at 37° C. Subsequently, the OD at 492 nm was measured on a Thermo Scientific Multiskan FC plate reader (Thermo Scientific). For quantification the background signal of ‘medium only’ wells was subtracted from all other wells, before the cell viability percentage of treated/untreated cells was calculated, by dividing the background corrected signal of treated wells over the background corrected signal of the untreated wells (×100).

The next assay has as its system A431 cells (EGFR^++). The procedure:
as §1

For assay [1], the system named is MDA-MB-468 cells (HER2^−). To be noted: FIG. 9B. As for the experimental part:
as §1

The next assay concerns SK-BR-3 cells (HER2^++). The procedure: as §1
Setting [2] is: SO1861 titrated on 10 pM CD71mab-saporin.
Setting [3] is: SO1861 titrated on 10 pM Pertuzumab-saporin.
Setting [4] is: SO1861 titrated on 10 pM cetuximab-saporin.
[5] abbreviates: SO1861 titrated on 10 pM matuzumab-dianthin.
Where [6] appears, read: SO1861 titrated on 50 pM Pertuzumab-saporin.
The mark [7] stands for this setting: SO1861 titrated on 50 pM trastuzumab-saporin.
[8] abbreviates: substance alone, equivalent concentrations, FIG. 2A.

Like-named read-outs stand apart in the source and are kept apart here.

For orientation: IC50 means the concentration that gives 50% inhibition.

With `CC(=O)O[C@H]1[C@H](O[C@@H]2OC[C@@H](O)[C@H](O)[C@H]2O)[C@@H](O)[C@H](O[C@@H]2[C@H](O)[C@@H](O[C@@H]3O[C@@H](C)[C@H](O[C@@H]4OC[C@@H](O)[C@H](O[C@@H]5O[C@H](CO)[C@@H](O)[C@H](O)[C@H]5O)[C@H]4O)[C@@H](O)[C@H]3O)[C@H](OC(=O)[C@]34CCC(C)(C)C[C@H]3C3=CC[C@@H]5[C@@]6(C)CC[C@H](O[C@@H]7O[C@H](C(=O)O)[C@@H](O)[C@H](O[C@@H]8OC[C@@H](O)[C@H](O)[C@H]8O)[C@H]7O[C@@H]7O[C@H](CO)[C@H](O)[C@H](O)[C@H]7O)[C@@](C)(C=O)[C@@H]6CC[C@@]5(C)[C@]3(C)C[C@H]4O)O[C@@H]2C)O[C@@H]1C` [SO1861], the IC50 is 200 nM in the assay with A2058 cells (EGFR^−) (setting [2]); 200 nM with A2058 cells (EGFR^−) (setting [3]); 200 nM in the assay with A2058 cells (EGFR^−) (setting [6]); 200 nM in the assay with A2058 cells (EGFR^−) (setting [7]); 200 nM in the assay with A431 cells (EGFR^++) (SO1861 titrated on 10 pM CD71-saporin, FIG. 8A, read-out: SO1861 IC50 cell killing); 200 nM in the assay with A431 cells (EGFR^++) (SO1861 titrated on 10 pM cetuximab-saporin, FIG. 8A, read-out: SO1861 IC50 cell killing). Also, the 50% inhibitory concentration (IC50) is 200 nM in the assay on A431 cells (EGFR^++) (SO1861 titrated on 10 pM matuzumab-dianthin, FIG. 8A, read-out: SO1861 IC50 cell killing); 300 nM with A431 cells (EGFR^++) (SO1861 titrated on 10 pM pertuzumab-saporin, FIG. 8A, read-out: SO1861 IC50 cell killing); 200 nM with A431 cells (EGFR^++) (SO1861 titrated on 50 pM pertuzumab-saporin, FIG. 8A, read-out: SO1861 IC50 cell killing); 250 nM in the assay on A431 cells (EGFR^++) (SO1861 titrated on 50 pM trastuzumab, FIG. 8A, read-out: SO1861 IC50 cell killing); 200 nM in assay [1] (setting [2]); over 1000 nM in assay [1] (setting [3]). Besides, the IC50 in assay [1] (setting [4]) was 200 nM; in assay [1] (setting [5]), 200 nM; in assay [1] (setting [6]), over 1000 nM; in assay [1] (setting [7]), over 1000 nM; in the assay with SK-BR-3 cells (HER2^++) (SO1861 titrated on 10 pM CD71-saporin, FIG. 9A, read-out: SO1861 IC50 cell killing), 200 nM; in the assay with SK-BR-3 cells (HER2^++) (SO1861 titrated on 10 pM Pertuzumab-saporin, FIG. 9A, read-out: SO1861 IC50 cell killing), 200 nM. Further, the IC50 turned out to be 200 nM in the assay with SK-BR-3 cells (HER2^++) (SO1861 titrated on 10 pM cetuximab-saporin, FIG. 9A, read-out: SO1861 IC50 cell killing); 200 nM in the assay with SK-BR-3 cells (HER2^++) (SO1861 titrated on 10 pM matuzumab-dianthin, FIG. 9A, read-out: SO1861 IC50 cell killing); 200 nM with SK-BR-3 cells (HER2^++) (SO1861 titrated on 50 pM Pertuzumab-saporin, FIG. 9A, read-out: SO1861 IC50 cell killing); 200 nM with SK-BR-3 cells (HER2^++) (SO1861 titrated on 50 pM trastuzumab-saporin, FIG. 9A, read-out: SO1861 IC50 cell killing). The cell killing activity result with A2058 cells (EGFR^−) (setting [4]) and in the assay on A2058 cells (EGFR^−) (setting [5]) was “not active” each time.
For the compound “pertuzumab-(Cys-L-SO1861)^4: SO1861-EMCH conjugated via cysteine residues (Cys) to pertuzumab, with a DAR 4”, the cell killing activity result in the assay on SK-BR-3 cells (HER2^++) (setting [8]) was “could not induce any cell killing activity”. Moreover, the IC50 in the assay with SK-BR-3 cells (HER2^++) (substance titrated on fixed 50 pM trastuzumab-saporin, FIG. 2A, read-out: IC50 cell killing) turned out to be 0.5 nM. The “cell killing activity at higher concentrations” value with SK-BR-3 cells (HER2^++) (titrated on fixed 50 pM pertuzumab-dianthin, higher concentrations) is “cell killing activity was reduced”.
Consider “pertuzumab: monoclonal antibody binding human HER2”, for which the cell killing activity entry with SK-BR-3 cells (HER2^++) (equivalent concentrations + 50 pM trastuzumab-saporin, FIG. 2A) is given as “could not induce any cell killing activity”; in the assay on SK-BR-3 cells (HER2^++) (setting [8]), “could not induce any cell killing activity”.
Turning to “matuzumab-SO1861: SO1861-EMCH conjugated via cysteine residues (Cys) to matuzumab, with a DAR 3,3”, the IC50 in the assay with A431 cells (EGFR^++) (substance titrated on fixed 10 pM EGFdianthin, FIG. 6A, read-out: IC50 cell killing) stood at 2 nM; with A431 cells (EGFR^++) (substance titrated on fixed 10 pM cetuximab-saporin, FIG. 6A, read-out: IC50 cell killing), 2 nM.

Values taken from patent US20230248845A1, “COMBINATION OF AN ANTIBODY-DRUG CONJUGATE AND AN ANTIBODY-SAPONIN CONJUGATE” (SAPREME TECHNOLOGIES B.V., priority 2020, published 2023).
